The conditions of series [1]: standard substances of liposolubility; values reported in the literature; cited from earlier work.
Series [2] has as its target T1, synthetic amyloid β (1-40) aggregates (Homo sapiens, UniProt P05067). Briefly: Inhibition of binding of compound 23 to amyloid β protein aggregates. Details: amyloid β (1-40) peptide hydrochloric acid salt; host or cells: chemically synthesised peptide. As to conditions: binding of 125I-labeled compound 23 to A β 1-40 aggregates, room temperature, three hours. The procedure: Synthetic A β peptides in a solution form undergo spontaneous aggregation in a test tube, to thereby form aggregates having the same β-sheet structure as that of amyloid aggregates present in a brain suffering from Alzheimer's disease (hereinafter, such a brain is referred to as an “Alzheimer brain”).
After ultrasonication, the mixture was gently stirred at 37° C. for four days, to thereby produce synthetic amyloid β (1-40) aggregates.
Binding test was performed in the following manner. Firstly, PBS (500 μL) and 0.2% BSA/PBS solution (100 μL) were added to test tubes. […] Reaction was initiated by adding a synthetic amyloid β (1-40) aggregates solution (concentration: 500 nmol/L, adjusted by PBS) (200 μL) to each test tube.
These samples were incubated at room temperature for three hours, and each reaction mixture was filtered by means of a cell harvester (M-24R, product of Brandel) by use of a Whatman GF/B filter (product of Whatman). The filter was washed thrice with ice-cooled PBS solution (about 2 mL) containing 0.1-mmol/L ascorbic acid.
Activity values were calculated by means of a GraphPad Prism Ver.

Series [3] concerns the target T1, synthetic amyloid β (1-40) aggregates. Conditions: for Bonding amount against amyloid β protein aggregate concentration: presence and absence of normal rat brain homogenate.
Description: A brain tissue was removed from a normal rat, and a 5-fold amount of PBS was added to the tissue (wet state). A homogenate was produced from the mixture by use of a homogenizer. To test tubes, PBS (500 μL, in the presence of homogenate or 600 μL, in the absence of homogenate) was added. A rat brain homogenate (100 μL) was added under the presence condition of homogenate. […] Each (200 μL) of the Aβ aggregates solutions of twice-diluted series was added to each test tube, whereby reaction was initiated.
By subtracting a non-specific binding amount from the total binding amount and dividing the difference by the non-specific binding amount, an SN (Signal/Noise) ratio was calculated. The relationship between the SN ratio and amyloid β protein aggregate concentration was investigated (FIG. 2).

Where two headings read alike, the source gives them in different places. Where only a bound is given, the exact number is not on record here.

The source of these data is patent US8022075B2, “Diagnostic and remedy for disease caused by amyloid aggregation and/or deposition” (Fujifilm Ri Pharma Co., Ltd., priority 2005, dated 2011).

In general, IC50 refers to the concentration that gives 50% inhibition.

T1 sequence (P05067 672-711 limits assumed): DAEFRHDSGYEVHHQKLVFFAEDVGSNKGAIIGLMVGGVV

Regarding `CC(=O)Nc1ccc(O)cc1` [Acetaminophen], the LogD7.4 in series [1] was 0.51.
For the molecule `Oc1ncnc2[nH]ncc12` [Allopurinol], the LogD7.4 in series [1] was −0.44.
As for `c1ccc(-c2ccc(C(c3ccccc3)n3ccnc3)cc2)cc1` (centres unmarked) [Bifonazole], in series [1], the LogD7.4 is reported as 4.77.
For `CN/C(=N/CCSCc1nc[nH]c1C)NC#N` [Cimetidine], the LogD7.4 in series [1] is reported as 0.35.
`Clc1cccc(Cl)c1N=C1NCCN1` [Clonidine]: in series [1], the LogD7.4 is reported as 0.62.
Consider `Nc1c(/N=N/c2ccc(-c3ccc(/N=N/c4cc(S(=O)(=O)O)c5ccccc5c4N)cc3)cc2)cc(S(=O)(=O)O)c2ccccc12` [Congo Red, reference compound], for which the IC50 in series [2] is greater than 5000 nM.
`CC(=C(C#N)C#N)c1ccc2cc(N(C)CCF)ccc2c1` [FDDNP, reference compound]: the IC50 in series [2] (read-out: Inhibitory activity (n = 3) IC50 Mean ± S.D.) amounted to 1050 ± 48.8 nM.
For `C[C@]12CC[C@H]3[C@@H](CCC4=CC(=O)CC[C@@]43C)[C@@H]1CC[C@@H]2O` [Teststeron], the LogD7.4 in series [1] was 3.29.
Consider `CN(C)c1ccc(-c2cn3cc([123I])ccc3n2)cc1` [^123I-IMPY, [^123I]6-iodo-2-(4′-dimethylamino-)phenyl-imidazo[1,2-a]pyridine, reference compound], for which, in series [3], the “Bonding amount against amyloid β protein aggregate concentration” value is “increase in bonding amount in response to the amyloid β protein aggregate concentration”.
Consider `[123I]c1ccc2nc(-c3ccc(-c4cc[nH]n4)cc3)cn2c1` [^123I-labeled product of compound 3, [^123I]6-Iodo-2-[4-(1H-3-pyrazolyl)phenyl]imidazo[1,2-a]pyridine], for which the “SN (Signal/Noise) ratio” value in series [3] (compared with 123I-IMPY, presence and absence of normal rat brain homogenate (FIG. 2)) is recorded as “higher SN ratio”. The “Bonding amount against amyloid β protein aggregate concentration” value in series [3] is “increase in bonding amount in response to the amyloid β protein aggregate concentration”.
